# Tested on: symptoms of ADHD in adults
# Assay: Clinical Global Impressions-Improvement (CGI-I), same trial
# Format: in vivo, human
# Settings: 14 days; for CGI-I, percent of subjects showing improvement: b136 all subjects
# Description: This double-blind, multiple-dose, placebo-controlled, crossover study was conducted to assess the effects of 14 days of oral eltoprazine treatment in 48 adults with ADHD. Subjects eligible for study enrollment were to have met Diagnostic and Statistical Manual of Mental Disorders, Fourth Edition, Text Revision (DSM-IV-TR) criteria for ADHD. Assessment was to be made by clinical history, a Structured Clinical Interview for DSM-IV Axis Disorders-Research Version (SCID-RV), and a Conners' Adult ADHD Diagnostic Interview for DSM IV (CAADID).
# Oral doses of eltoprazine hydrochloride were 5 mg/day or 10 mg/day for 14 consecutive days (i.e., 2.5 or 5 mg twice daily (bid), respectively). Eltoprazine hydrochloride was administered in gelatin capsules with calcium hydrogen phosphate, 2H2O, maize starch NF, polyethylene glycol 6000 NF and magnesium stearate NF as excipients.
# Secondary endpoints were evaluated with the Clinical Global Impressions-Improvement (CGI-I) and Continuous Performance Test. (CPT). The CGI-I test is used to determine the […] of improvement.
compound,measurement,setting,value
"c1cc2c(c(N3CCNCC3)c1)OCCO2 [Eltoprazine, 1-(2,3-dihydro-1,4-benzodioxanyl-5-yl) piperazine]",CGI-I Mean Improvement (S.D.),"5 mg/day, n = 38",2.6 (1.2)
same,"CGI-I, Number of Patients Improved","5 mg/day, n = 38",26
same,"CGI-I, Number of Patients Not Improved","5 mg/day, n = 38",12
same,"CGI-I, percent of subjects showing improvement","5 mg/day, b141/b146 subgroup with baseline score >40",62%
same,CGI-I Mean Improvement (S.D.),"10 mg/day, n = 37",2.7 (0.9)
same,"CGI-I, Number of Patients Improved","10 mg/day, n = 37",30
same,"CGI-I, Number of Patients Not Improved","10 mg/day, n = 37",7
same,"CGI-I, percent of subjects showing improvement","10 mg/day, b141 subgroup with baseline score >40",71%
same,CGI reduction in severity score,"more severely affected population (baseline score >40), 5 mg/day",14%

# — US20180228799A1, “Treatment for Neurological and Mental Disorders” (PSYCHOGENICS, INC., priority 2008, published 2018)
